From article PMC5428041, “Dynamic equilibrium on DNA defines transcriptional regulation of a multidrug binding transcriptional repressor, LmrR” (Scientific Reports, 2017)

Target: T1, LmrR (Lactococcus cremoris, UniProt A2RI36)
T1 construct: gene llmg_0323; C-terminal His6-tagged LmrR (homodimer)
Assay: ITC ([…] stoichiometry, […] °C); supported by NMR titration
Assay type: binding

T1 sequence (A2RI36 entry or part of it): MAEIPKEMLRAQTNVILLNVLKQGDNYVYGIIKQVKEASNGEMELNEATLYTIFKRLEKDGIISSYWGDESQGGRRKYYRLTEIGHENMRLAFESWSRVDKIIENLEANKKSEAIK

Q: With Cc1cc2nc3c(=O)[nH]c(=O)nc-3n(C[C@H](O)[C@H](O)[C@H](O)CO)c2cc1C [riboflavin] as the compound, how does the Kd read?
A: The Kd was 330 nM.
